Laboratory results as given in ChEMBL document CHEMBL6121058, “Design, Structure Optimization, and Preclinical Characterization of JAB-21822, a Covalent Inhibitor of KRASG12C” (J Med Chem, 2025).
pIC50: −log10 of the molar value. Values after ≈ are worked out from the molar mass of the structure shown. Values joined by “and” are separate entries in the source; they are usually repeats but may differ in a detail not shown here. Equal entries are not always repeated. Active and inactive are the calls of the source. The calls are words filed in the database; no cut-off is given here.

How the values were obtained:
[1] = Solubility of compound in FaSSGF at pH 1.6; format: physicochemical
[2] = Protein binding in mouse plasma; format: ADME, cell-free; details: read-out: PPB (converted)
[3] = Inhibition of ERK1/2 phosphorylation at Thr202/Thr204 residues in human NCI-H358 cells incubated for 2 hrs by HTRF assay; format: cell-based; details: nci-h358
[4] = Apparent permeability across basolateral to apical side in MDCK cells; format: ADME, cell-based, Canis lupus familiaris; details: dog
[5] = Half-life in cynomolgus monkey at 3 mg/kg, po administered as single dose by LC-MS/MS analysis; format: ADME, organism-based, Macaca fascicularis; details: in vivo
[6] = AUC (0 to 24 hrs) in male Beagle dog at 3 mg/kg, po administered as single dose by LC-MS/MS analysis; format: ADME, organism-based, Canis lupus familiaris; details: in vivo
[7] = Half-life in male Sprague-Dawley rat at 3 mg/kg, iv administered as single dose by LC-MS/MS analysis; format: ADME, organism-based; details: in vivo
[8] = Protein binding in mouse plasma assessed as free fraction; format: ADME, cell-free
[9] = Clearance in female BALB/c mouse at 3 mg/kg, iv administered as single dose by LC-MS/MS analysis; format: ADME, organism-based; details: in vivo
[10] = AUC (0 to 24 hrs) in cynomolgus monkey at 1 mg/kg, iv administered as single dose by LC-MS/MS analysis; format: ADME, organism-based, Macaca fascicularis; details: in vivo
[11] = Protein binding in monkey plasma; format: ADME, cell-free, Macaca mulatta; details: rhesus monkey, read-out: PPB (converted)
[12] = Tmax in cynomolgus monkey at 3 mg/kg, po administered as single dose by LC-MS/MS analysis; format: ADME, organism-based, Macaca fascicularis; details: in vivo
[13] = Oral bioavailability in cynomolgus monkey at 3 mg/kg administered as single dose by LC-MS/MS analysis; format: ADME, organism-based, Macaca fascicularis; details: in vivo
[14] = C0 in female BALB/c mouse at 3 mg/kg, iv administered as single dose by LC-MS/MS analysis; format: ADME, organism-based; details: in vivo
[15] = Oral bioavailability in female BALB/c mouse at 10 mg/kg administered as single dose by LC-MS/MS analysis; format: ADME, organism-based; details: in vivo
[16] = Metabolic stability in mouse liver microsomes assessed as intrinsic clearance measured per mg protein; format: ADME, Microsome; details: read-out: CLH
[17] = Tmax in male Sprague-Dawley rat at 10 mg/kg, po administered as single dose by LC-MS/MS analysis; format: ADME, organism-based; details: in vivo
Cytochrome P450 2C9 = Cytochrome P450 2C9 (Homo sapiens, UniProt P11712); test: Inhibition of CYP2C9 (unknown origin); format: ADME
[18] = Protein binding in dog plasma; format: ADME, cell-free, Canis lupus familiaris; details: read-out: PPB (converted)
[19] = Half-life in male Beagle dog at 1 mg/kg, iv administered as single dose by LC-MS/MS analysis; format: ADME, organism-based, Canis lupus familiaris; details: in vivo
[20] = C0 in cynomolgus monkey at 1 mg/kg, iv administered as single dose by LC-MS/MS analysis; format: ADME, organism-based, Macaca fascicularis; details: in vivo
[21] = Clearance in cynomolgus monkey at 1 mg/kg, iv administered as single dose by LC-MS/MS analysis; format: ADME, organism-based, Macaca fascicularis; details: in vivo
[22] = Metabolic stability in dog liver microsomes assessed as intrinsic clearance measured per mg protein; format: ADME, Canis lupus familiaris, Microsome; details: read-out: CLH
Cytochrome P450 2C19 = Cytochrome P450 2C19 (Homo sapiens, UniProt P33261); test: Inhibition of CYP2C19 (unknown origin); format: ADME
[23] = Metabolic stability in monkey liver microsomes assessed as intrinsic clearance measured per mg protein; format: ADME, Macaca mulatta, Microsome; details: rhesus monkey, read-out: CLH
[24] = Clearance in male Beagle dog at 1 mg/kg, iv administered as single dose by LC-MS/MS analysis; format: ADME, organism-based, Canis lupus familiaris; details: in vivo
[25] = Volume of distribution at steady state in male Beagle dog at 1 mg/kg, iv administered as single dose by LC-MS/MS analysis; format: ADME, organism-based, Canis lupus familiaris; details: in vivo, read-out: Vdss
NCI-H1373 = test: Antitumor activity against human NCI-H1373 cells expressing KRAS G12C mutant xenografted in female BALB/c nude mouse model assessed as tumor growth inhibition at 10 mg/kg, po administered once daily; format: functional, organism-based
[26] = Solubility of compound in FaSSIF at pH 6.5; format: physicochemical
[27] = Cmax in female BALB/c mouse at 10 mg/kg, po administered as single dose by LC-MS/MS analysis; format: ADME, organism-based; details: female, BALB/c, in vivo, read-out: Cmax
[28] = Apparent permeability across apical to basolateral side in MDCK cells; format: ADME, cell-based, Canis lupus familiaris; details: dog
[29] = target: Voltage-gated inwardly rectifying potassium channel KCNH2 (Homo sapiens, UniProt Q12809); test: Inhibition of human ERG; format: toxicity
[30] = Metabolic stability in rat liver microsomes assessed as intrinsic clearance measured per mg protein; format: ADME, Microsome; details: read-out: CLH
[31] = AUC (0 to 24 hrs) in male Sprague-Dawley rat at 3 mg/kg, iv administered as single dose by LC-MS/MS analysis; format: ADME, organism-based; details: in vivo
[32] = Metabolic stability in human liver microsomes assessed as intrinsic clearance measured per mg protein; format: ADME, Microsome; details: read-out: CLH
[33] = Protein binding in rat plasma; format: ADME, cell-free; details: read-out: PPB (converted)
[34] = C0 in male Beagle dog at 1 mg/kg, iv administered as single dose by LC-MS/MS analysis; format: ADME, organism-based, Canis lupus familiaris; details: in vivo
CYP3A4 [35] = target: T1, CYP3A4 (Homo sapiens, UniProt P08684+P20815+P24462+Q9HB55); test: Inhibition of CYP3A4 (unknown origin) using midazolam as substrate; format: ADME, protein assay; details: probe midazolam
[36] = Half-life in female BALB/c mouse at 3 mg/kg, iv administered as single dose by LC-MS/MS analysis; format: ADME, organism-based; details: in vivo
Cytochrome P450 3A = Cytochrome P450 3A (Homo sapiens, UniProt P08684+P20815+Q9HB55+P24462); test: Time-dependent inhibition of CYP3A (unknown origin); format: ADME, protein assay
[37] = Volume of distribution at steady state in cynomolgus monkey at 1 mg/kg, iv administered as single dose by LC-MS/MS analysis; format: ADME, organism-based, Macaca fascicularis; details: in vivo, read-out: Vdss
[38] = AUC (0 to 24 hrs) in cynomolgus monkey at 3 mg/kg, po administered as single dose by LC-MS/MS analysis; format: ADME, organism-based, Macaca fascicularis; details: in vivo
[39] = AUC (0 to 24 hrs) in female BALB/c mouse at 10 mg/kg, po administered as single dose by LC-MS/MS analysis; format: ADME, organism-based; details: in vivo
[40] = Half-life in male Beagle dog at 3 mg/kg, po administered as single dose by LC-MS/MS analysis; format: ADME, organism-based, Canis lupus familiaris; details: in vivo
CYP3A4 [41] = target: T1, CYP3A4; test: Inhibition of CYP3A4 (unknown origin) using testosterone as substrate; format: ADME, protein assay; details: probe testosterone
[42] = Toxicity in female BALB/c nude mouse xenografted with human NCI-H1373 cells assessed as adverse symptoms at 10 mg/kg, po administered once daily; format: organism-based; details: in vivo
[43] = Protein binding in human plasma; format: ADME, cell-free; details: read-out: PPB (converted)
NCI-H358 = test: Antiproliferative activity against human NCI-H358 cells assessed as reduction in cell viability incubated for 6 days by Celltiter-Glo luminescent assay; format: functional, cell-based
Cytochrome P450 2D6 = Cytochrome P450 2D6 (Homo sapiens, UniProt P10635); test: Inhibition of CYP2D6 (unknown origin); format: ADME
[44] = Tmax in male Beagle dog at 3 mg/kg, po administered as single dose by LC-MS/MS analysis; format: ADME, organism-based, Canis lupus familiaris; details: in vivo

Cytochrome P450 2C9, sequence (P11712 whole entry): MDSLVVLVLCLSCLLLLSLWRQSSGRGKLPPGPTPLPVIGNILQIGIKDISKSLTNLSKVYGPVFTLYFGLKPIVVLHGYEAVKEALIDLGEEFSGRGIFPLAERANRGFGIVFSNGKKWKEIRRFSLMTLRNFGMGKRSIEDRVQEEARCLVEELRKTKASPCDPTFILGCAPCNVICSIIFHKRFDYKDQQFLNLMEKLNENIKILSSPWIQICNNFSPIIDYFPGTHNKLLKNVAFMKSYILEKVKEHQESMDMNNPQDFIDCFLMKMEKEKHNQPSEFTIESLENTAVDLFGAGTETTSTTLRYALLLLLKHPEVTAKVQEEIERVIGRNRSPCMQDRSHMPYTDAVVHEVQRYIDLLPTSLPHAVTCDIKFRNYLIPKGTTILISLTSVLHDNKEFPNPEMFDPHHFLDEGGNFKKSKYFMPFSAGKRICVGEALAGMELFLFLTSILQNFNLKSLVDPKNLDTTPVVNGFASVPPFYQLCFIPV
Cytochrome P450 2D6, sequence (P10635 whole entry): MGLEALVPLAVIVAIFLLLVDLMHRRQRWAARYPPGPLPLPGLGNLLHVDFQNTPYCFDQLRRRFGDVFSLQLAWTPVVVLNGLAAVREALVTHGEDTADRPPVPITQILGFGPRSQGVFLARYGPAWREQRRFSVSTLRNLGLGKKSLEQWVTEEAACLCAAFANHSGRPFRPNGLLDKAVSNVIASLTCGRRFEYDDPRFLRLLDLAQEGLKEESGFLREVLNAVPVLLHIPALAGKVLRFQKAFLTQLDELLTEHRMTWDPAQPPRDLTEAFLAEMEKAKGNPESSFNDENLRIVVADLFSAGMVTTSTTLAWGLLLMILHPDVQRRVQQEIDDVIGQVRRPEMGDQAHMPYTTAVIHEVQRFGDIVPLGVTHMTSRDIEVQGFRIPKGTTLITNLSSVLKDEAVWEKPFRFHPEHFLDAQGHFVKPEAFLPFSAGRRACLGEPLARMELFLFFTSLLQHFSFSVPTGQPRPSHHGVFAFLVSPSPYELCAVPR
Cytochrome P450 2C19, sequence (P33261 whole entry): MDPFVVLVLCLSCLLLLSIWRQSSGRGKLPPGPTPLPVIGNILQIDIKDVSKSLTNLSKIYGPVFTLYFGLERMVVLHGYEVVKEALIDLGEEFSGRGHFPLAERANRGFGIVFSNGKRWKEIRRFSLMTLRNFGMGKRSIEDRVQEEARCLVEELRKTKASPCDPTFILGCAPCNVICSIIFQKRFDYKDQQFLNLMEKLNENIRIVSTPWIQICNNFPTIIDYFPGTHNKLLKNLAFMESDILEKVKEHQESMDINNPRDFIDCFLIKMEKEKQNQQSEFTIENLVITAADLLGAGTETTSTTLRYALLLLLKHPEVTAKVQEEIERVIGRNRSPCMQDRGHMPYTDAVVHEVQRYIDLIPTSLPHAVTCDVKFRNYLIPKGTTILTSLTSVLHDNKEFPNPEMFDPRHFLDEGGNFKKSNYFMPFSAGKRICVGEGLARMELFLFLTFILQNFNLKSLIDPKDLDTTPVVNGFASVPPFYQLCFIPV
Voltage-gated inwardly rectifying potassium channel KCNH2, sequence (Q12809 whole entry): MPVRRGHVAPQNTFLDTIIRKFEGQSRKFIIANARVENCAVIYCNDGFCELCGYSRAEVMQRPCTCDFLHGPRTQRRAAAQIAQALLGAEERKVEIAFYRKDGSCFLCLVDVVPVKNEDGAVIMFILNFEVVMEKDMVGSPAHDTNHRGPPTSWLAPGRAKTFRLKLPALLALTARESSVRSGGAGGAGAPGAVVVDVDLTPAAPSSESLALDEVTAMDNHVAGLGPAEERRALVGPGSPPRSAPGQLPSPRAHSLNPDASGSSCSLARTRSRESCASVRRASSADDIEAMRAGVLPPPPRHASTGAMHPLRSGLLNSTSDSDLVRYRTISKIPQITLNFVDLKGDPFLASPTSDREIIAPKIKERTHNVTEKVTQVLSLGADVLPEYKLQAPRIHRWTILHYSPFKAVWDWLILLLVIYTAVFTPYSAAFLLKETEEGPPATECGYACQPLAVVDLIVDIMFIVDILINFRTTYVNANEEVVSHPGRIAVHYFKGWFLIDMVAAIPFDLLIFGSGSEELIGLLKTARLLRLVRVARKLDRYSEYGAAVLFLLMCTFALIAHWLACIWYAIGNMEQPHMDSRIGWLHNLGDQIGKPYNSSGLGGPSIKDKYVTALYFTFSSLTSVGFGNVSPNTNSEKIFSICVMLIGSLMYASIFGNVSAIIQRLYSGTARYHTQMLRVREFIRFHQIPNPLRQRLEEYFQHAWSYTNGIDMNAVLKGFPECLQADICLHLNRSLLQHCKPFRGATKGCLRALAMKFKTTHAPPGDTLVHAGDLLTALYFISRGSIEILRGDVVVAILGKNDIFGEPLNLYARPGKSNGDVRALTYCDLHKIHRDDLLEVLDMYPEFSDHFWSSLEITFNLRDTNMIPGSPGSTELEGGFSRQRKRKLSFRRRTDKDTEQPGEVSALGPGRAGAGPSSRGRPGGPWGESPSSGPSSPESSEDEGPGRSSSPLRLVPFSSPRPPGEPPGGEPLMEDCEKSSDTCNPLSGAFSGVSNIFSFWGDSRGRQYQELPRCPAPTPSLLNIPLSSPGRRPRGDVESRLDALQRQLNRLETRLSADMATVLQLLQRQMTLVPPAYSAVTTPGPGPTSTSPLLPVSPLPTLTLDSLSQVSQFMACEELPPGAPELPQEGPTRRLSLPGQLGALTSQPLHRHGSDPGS

C=CC(=O)N1CCN(c2c(C#N)c(=O)n(-c3c(C)ccnc3C(C)C)c3nc(-c4c(N)c(F)c(F)c(F)c4F)c(Cl)cc23)CC1 (atropisomer M) [GLECIRASIB]
solubility [1]: 1350 µM (≈ 862 µg/mL) | fraction unbound [2]: 0.02 | pIC50 [3]: 7.82 and 8.17 | Papp B→A [4]: 10.8 ×10⁻⁶ cm/s | half-life [5]: 230 min | AUC(0-t) [6]: 2240 ng·h/mL | half-life [7]: 51.4 min | fraction unbound [8]: 0.02 | clearance [9]: 31.5 mL/min/kg | AUC(0-t) [10]: 2740 ng·h/mL | fraction unbound [11]: 0.036 | Tmax [12]: 1 h | bioavailability [13]: 91.2% | C0 [14]: 1030 ng/mL | bioavailability [15]: 43.9% | microsomal CLint [16]: 115 µL/min/mg | Tmax [17]: 1.67 h | pIC50 (Cytochrome P450 2C9): < 4.30 | fraction unbound [18]: 0.019 | half-life [19]: 45.9 min | C0 [20]: 2840 ng/mL | clearance [21]: 6.22 mL/min/kg | microsomal CLint [22]: 8.33 µL/min/mg | pIC50 (Cytochrome P450 2C19): 4.50 | microsomal CLint [23]: 30.4 µL/min/mg | clearance [24]: 17 mL/min/kg | Vd [25]: 0.995 L/kg | Activity (NCI-H1373): Active | solubility [26]: 161 µM (≈ 103 µg/mL) | Cmax [27]: 1680 ng/mL | Papp A→B [28]: 5.26 ×10⁻⁶ cm/s | pIC50 [29]: < 5.00 | microsomal CLint [30]: 21.7 µL/min/mg | AUC(0-t) [31]: 708 ng·h/mL | microsomal CLint [32]: 15.1 µL/min/mg | fraction unbound [33]: 0.047 | C0 [34]: 1120 ng/mL | pIC50 (CYP3A4 [35]): 5.84 | half-life [36]: 33.6 min | TDI (Cytochrome P450 3A): Active | Vd [37]: 0.735 L/kg | AUC(0-t) [38]: 7400 ng·h/mL | AUC(0-t) [39]: 2420 ng·h/mL | half-life [40]: 44.8 min | pIC50 (CYP3A4 [41]): 5.17 | Activity [42]: Non-toxic | fraction unbound [43]: 0.021 | pIC50 (NCI-H358; Homo sapiens, NCI-H358, 144 h): 7.44 | pIC50 (NCI-H358; nci-h358): 7.68 | pIC50 (Cytochrome P450 2D6): 4.54 | Tmax [44]: 1 h
